Measurements as given in US11033029B2, “Pyrazole amide compound and use thereof” (Shenyang Sinochem Agrochemicals R&D Co., Ltd., priority 2013, dated 2021).

Legend:
[1] = system: corn rust (Puccinia sorghi Schw); test: Protective effect against corn rust on potted plants; type: in vivo; conditions: protectant activity, parallel test
Procedure: (§1) Fungicidal activity of the compounds in the present invention against many kinds diseases were carried out. The procedure of fungicidal activity determination is as follows:
(§2) The fungicidal activity was tested in vivo manner on the potted plants. The test compounds of the present invention were dissolved in proper solvent (choosing the solvent according their dissolving ability to the compounds, the solvents could be acetone, methanol or N,N-dimethylformide, etc. The volume ratio between solvent and liquid sprayed was equal to or less than 0.05) and dilute with water contain 0.1% Tween 80 to given concentrations. Compounds of present invention was sprayed onto the leaves of seedling according to the designed concentration. Meanwhile, water was set as the blank control, three replicates were set for each treatment, the spore suspension were inoculated on the second day after treatment, then the plants were placed in an artificial climate chamber (temperature: day 25° C., night 20° C., relative humidity 95 to 100%). 24 hours later, the plants were moved to green house to cultivated. The plants which not need to control humidity was inoculated spore suspension in green house and cultivated in green house directly. The results were investigated after the plants were fully infected relative to the blank control (usually one week). The test results grading 100-0 refers to the <A Manual of Assessment Keys for Plant Diseases> which edited by American Phytopathological Society. “100” refer to no infection and “0” refer to the most serious infection
Protective effect against corn rust (Puccinia sorghi Schw):
According the test method described above, parallel test were carried out between compounds 1, 3, 7, 9, 11 and 21 of present invention and the known compounds KC1, KC2, KC3 and KC4.

[2] = system: cucumber downy mildew (Pseudoperonospora cubensis (Berk.et Curt.) Rostov); test: Protective effect against cucumber downy mildew on potted plants; type: in vivo; conditions: 400 ppm, protectant activity, parallel test
Procedure: as §1, §2
Protective effect against cucumber downy mildew (Pseudoperonospora cubensis (Berk.et Curt.) Rostov)
According the test method described above, parallel test were carried out between compounds 2 and 11 of present invention and the known compounds KC1, KC2, KC3 and KC4 (they are the compounds 7g, 7f and 7a in Chinese Journal of Pesticide Science, 2011, 13(6): 576-580 and compound of 11 in CN1646494A, respectively).

SMILES	pest or weed control at 6.25 ppm [1] [%]	pest or weed control at 25 ppm [1] [%]	Control effect against cucumber downy mildew (%) [2] [%]
C=C(C)Cc1c(NC(=O)c2cn(C)nc2C(F)F)cccc1OC(C)C [Compound 21]	90	100	–
CCCC(C)Oc1cccc(NC(=O)c2cn(C)nc2C(F)F)c1 (stereo not drawn) [Compound 3]	95	100	–
Cn1cc(C(=O)Nc2ccc(F)cc2-c2ccc(Cl)c(Cl)c2)c(C(F)F)n1 [KC4, bixafen]	0	50	0
CCC(CC)Oc1cccc(NC(=O)c2cn(C)nc2C(F)F)c1C [Compound 11]	90	100	90
CC(C)Oc1cccc(NC(=O)c2cn(C)nc2C(F)F)c1 [Compound 1]	100	100	–
Cn1cc(C(=O)Nc2ccccc2)c(C(F)F)n1 [KC1]	0	60	0
Cc1ccccc1NC(=O)c1cn(C)nc1C(F)F [KC2]	0	0	0
Cc1c(F)cccc1NC(=O)c1cn(C)nc1C(F)F [KC3]	20	30	0
